Columns and labels:
BMP6 = test: Cell assay HTRF BMP6 (Table 15); assay type: cell-based
BMPR2 = target: T1, BMPR2 (Homo sapiens, UniProt Q13873); test: LanthaScreen Eu kinase binding assay, BMP type II receptor BMPR2; conditions: 10-point titration from 10 μM, 3-fold serial dilution, Life Technologies
T1 sequence (Q13873 27-1038): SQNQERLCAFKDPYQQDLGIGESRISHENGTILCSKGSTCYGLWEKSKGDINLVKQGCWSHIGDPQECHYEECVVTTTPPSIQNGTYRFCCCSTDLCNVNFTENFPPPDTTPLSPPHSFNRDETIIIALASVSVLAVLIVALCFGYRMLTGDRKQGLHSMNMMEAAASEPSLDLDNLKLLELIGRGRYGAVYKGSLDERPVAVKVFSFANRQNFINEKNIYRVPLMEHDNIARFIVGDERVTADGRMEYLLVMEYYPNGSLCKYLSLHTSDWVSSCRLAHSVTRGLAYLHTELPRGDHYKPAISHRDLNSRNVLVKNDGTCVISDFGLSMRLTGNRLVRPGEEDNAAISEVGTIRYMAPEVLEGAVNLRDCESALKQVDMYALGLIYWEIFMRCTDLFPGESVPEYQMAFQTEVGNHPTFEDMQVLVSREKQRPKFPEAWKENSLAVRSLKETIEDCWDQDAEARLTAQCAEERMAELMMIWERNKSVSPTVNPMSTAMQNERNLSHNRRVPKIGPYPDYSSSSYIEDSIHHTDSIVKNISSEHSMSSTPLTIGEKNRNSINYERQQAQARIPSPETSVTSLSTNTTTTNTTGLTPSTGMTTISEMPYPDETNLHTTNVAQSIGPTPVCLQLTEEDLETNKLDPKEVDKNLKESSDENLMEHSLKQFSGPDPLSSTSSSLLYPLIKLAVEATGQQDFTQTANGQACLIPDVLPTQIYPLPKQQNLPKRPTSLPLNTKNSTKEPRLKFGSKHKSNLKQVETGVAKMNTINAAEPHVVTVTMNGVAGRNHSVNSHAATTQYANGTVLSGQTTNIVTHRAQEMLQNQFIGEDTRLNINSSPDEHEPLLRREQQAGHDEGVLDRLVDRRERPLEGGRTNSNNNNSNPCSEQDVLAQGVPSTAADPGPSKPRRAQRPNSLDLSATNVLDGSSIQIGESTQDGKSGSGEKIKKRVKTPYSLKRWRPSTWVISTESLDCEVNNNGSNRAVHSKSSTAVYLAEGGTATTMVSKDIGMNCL
Procedure: (§1) Kinase Profiling BMP Type II Receptor Experimental Procedure (Life Technologies, 5225 Vernona Road, Madison, Wis. 53744)
(§2) The measurement of each compound's half maximal inhibitory concentration (IC50) for BMP type II receptors (ACVR2A, ACVR2B, BMPR2 and TGFbR2) was carried out at Life Technologies by using its 10-point titration (starting concentration: 10 μM with 3-fold serial dilution) LanthaScreen™ biochemical kinase assay protocol. For the detailed description of LanthaScreen™ Eu kinase binding assay condition, please see: https://www.thermofisher.com/us/en/home/industrial/pharma-biopharma/drug-discovery-development/target-and-lead-identification-and-validation/kinasebiology/kinase-activity-assays/lanthascreentm-eu-kinas e-binding-assay/lanthascreen-eu-kinase-binding-assay-validation-table.html.

TGFβR2 = TGFβR2 (Homo sapiens, UniProt P37173); test: LanthaScreen Eu kinase binding assay, BMP type II receptor TGFbR2; conditions: 10-point titration from 10 μM, 3-fold serial dilution, Life Technologies
Chain of TGFβR2 (P37173 23-567): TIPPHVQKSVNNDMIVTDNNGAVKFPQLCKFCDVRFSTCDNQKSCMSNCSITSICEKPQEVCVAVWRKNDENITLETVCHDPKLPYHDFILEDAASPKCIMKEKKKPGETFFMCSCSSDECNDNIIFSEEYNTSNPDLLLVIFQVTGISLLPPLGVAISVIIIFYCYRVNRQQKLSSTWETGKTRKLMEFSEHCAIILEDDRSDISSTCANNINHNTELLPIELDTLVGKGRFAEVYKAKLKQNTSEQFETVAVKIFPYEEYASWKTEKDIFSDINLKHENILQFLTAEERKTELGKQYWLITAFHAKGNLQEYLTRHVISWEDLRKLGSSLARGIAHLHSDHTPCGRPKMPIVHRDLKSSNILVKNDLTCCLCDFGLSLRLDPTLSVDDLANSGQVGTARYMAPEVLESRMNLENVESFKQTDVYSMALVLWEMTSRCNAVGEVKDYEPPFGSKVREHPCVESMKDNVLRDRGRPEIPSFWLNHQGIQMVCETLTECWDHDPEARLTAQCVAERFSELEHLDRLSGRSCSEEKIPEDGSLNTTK
Source text: (§3) For the detailed description of LanthaScreen™ Eu kinase binding assay condition, please see: https://www.thermofisher.com/us/en/home/industrial/pharma-biopharma/drug-discovery-development/target-and-lead-identification-and-validation/kinasebiology/kinase-activity-assays/lanthascreentm-eu-kinas e-binding-assay/lanthascreen-eu-kinase-binding-assay-validation-table.html.

ACVR2B = ACVR2B (Homo sapiens, UniProt Q13705); test: LanthaScreen Eu kinase binding assay, BMP type II receptor ACVR2B; conditions: 10-point titration from 10 μM, 3-fold serial dilution, Life Technologies
Chain of ACVR2B (Q13705 19-512): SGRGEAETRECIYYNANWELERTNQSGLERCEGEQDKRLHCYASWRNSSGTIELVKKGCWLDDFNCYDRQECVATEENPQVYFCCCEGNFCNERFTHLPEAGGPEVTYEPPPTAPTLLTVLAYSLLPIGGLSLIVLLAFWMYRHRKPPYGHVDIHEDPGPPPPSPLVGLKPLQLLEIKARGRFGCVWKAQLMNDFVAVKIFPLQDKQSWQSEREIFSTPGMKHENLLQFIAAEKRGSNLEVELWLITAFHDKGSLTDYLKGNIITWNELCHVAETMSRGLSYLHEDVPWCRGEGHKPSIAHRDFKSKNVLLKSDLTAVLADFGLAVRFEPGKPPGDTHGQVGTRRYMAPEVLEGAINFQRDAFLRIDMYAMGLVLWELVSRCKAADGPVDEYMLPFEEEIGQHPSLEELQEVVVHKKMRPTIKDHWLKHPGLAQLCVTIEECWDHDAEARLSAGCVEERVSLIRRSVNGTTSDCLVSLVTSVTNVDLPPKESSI
Procedure: as §1, §2

ACVR2A = ACVR2A (Homo sapiens, UniProt P27037); test: LanthaScreen Eu kinase binding assay, BMP type II receptor ACVR2A; conditions: 10-point titration from 10 μM, 3-fold serial dilution, Life Technologies
Chain of ACVR2A (P27037 20-513): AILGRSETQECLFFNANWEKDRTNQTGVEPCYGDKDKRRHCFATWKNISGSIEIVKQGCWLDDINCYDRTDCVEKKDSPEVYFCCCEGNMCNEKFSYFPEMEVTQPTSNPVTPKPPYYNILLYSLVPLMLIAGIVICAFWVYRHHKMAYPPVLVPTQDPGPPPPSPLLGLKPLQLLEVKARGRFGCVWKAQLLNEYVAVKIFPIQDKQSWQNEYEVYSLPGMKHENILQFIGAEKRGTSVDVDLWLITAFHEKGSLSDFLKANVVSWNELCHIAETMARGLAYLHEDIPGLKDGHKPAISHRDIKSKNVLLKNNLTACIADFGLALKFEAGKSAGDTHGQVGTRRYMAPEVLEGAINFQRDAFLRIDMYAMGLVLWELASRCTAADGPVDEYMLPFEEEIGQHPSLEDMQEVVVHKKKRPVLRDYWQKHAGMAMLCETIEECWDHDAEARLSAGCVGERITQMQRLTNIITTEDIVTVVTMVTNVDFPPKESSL
Source text: as §3

TGFb = test: Cell assay HTRF TGFb (Table 15); assay type: cell-based; conditions: read-out: HRTF TGFb (IC50)

Row | Compound | IC50 (BMP6) [nM] | IC50 (BMPR2) [µM] | IC50 (TGFβR2) [nM] | IC50 (ACVR2B) [nM] | IC50 (ACVR2A) [nM] | IC50 (TGFb) [µM]
1 | Cc1cc(-c2cnn3cc(N4CCC(N5CCN(C)CC5)CC4)cnc23)c2ccccc2n1 [Compound 8] | 270 | > 10 | 191 | 745 | 1280 | 2.04
2 | c1ccc2c(-c3cnn4cc(-c5ccc(N6CCNCC6)cc5)cnc34)ccnc2c1 [TRND00262637-13] | 69 | > 10 | 8.06 | 20 | 14.5 | 9.29

From patent US20230000869A1, “NOVEL ALK2 INHIBITORS AND METHODS FOR INHIBITING BMP SIGNALING” (The Brigham and Women's Hospital, Inc., priority 2017, published 2023)
